Reference: patent publication US20240391882A1 (Mirati Therapeutics, Inc., priority 2023, published 2024)

Experiments:
Type in all cases: cell-based
[1] = system: T47D (PI3Kα H1047R mutant) cells; assay: Cell viability (CellTiter-Glo 2.0) in T47D cells; conditions: Homo sapiens, T47D, 72 h, approximately 72 hours
Outline: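 IC50 values derive from four-parameter fits of CellTiter-Glo luminescence expressed as percent of vehicle control. Cells (T47D or SKBR3) were plated at 1000/well the day before dosing and incubated about 72 h at 37° C with a 10-point, 1:4 series starting at 10 μm.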

[2] = system: SKBR3 (PI3Kα wild type) cells; assay: Cell viability (CellTiter-Glo 2.0) in SKBR3 cells; conditions: Homo sapiens, SK-BR-3; SKBR3 (PI3Kα wild type) cells, approximately 72 hours, CellTiter-Glo 2.0; read-out: SKBR3 (WT) Viability IC50
Protocol: This Example illustrates that representative compounds of the invention decrease the viability of cells.
The ability of a compound of Formula (I) to decrease the viability of cells was measured using CellTiter-Glo 2.0 (CTG) Luminescent Cell Viability Assay (#G9241) obtained from Promega (Madison, WI).
To prepare assay plates for viability assays, cells were trypsinized, resuspended in fresh media, and viable cells were counted utilizing trypan blue exclusion. T47D, SKBR3, or MKN1 cells were seeded at 1000 cells in 30 μl per well in a solid white flat bottom 384 cell culture plate (Perkin Elmer #6007680) and incubated at 37° C. overnight.
Assay day 1, cells were dosed using an Echo Liquid Handler (Beckman Coulter) with compounds at a 10 μm starting concentration and serially diluted (1:4) for a total of 10 concentrations. Cells were incubated for approximately 72 hours with the compounds (solubilized in DMSO) at 37° C. After 72 hours of treatment, cell plates were equilibrated to room temperature before adding 15 μl of CTG to each well, plates were then covered in aluminum foil to protect from light, incubated at room temperature for 30 minutes on a microtiter plate shaker, and luminescence readings were collected using a CLARIOstar microplate reader (BMG Labtech, Germany). Percent of vehicle control values were plotted as log(inhibitor) vs. response—Variable slope (four parameters) for curve fitting and IC50 values were determined using XLfit.

[3] = system: pAKT in T47D (PI3Kα H1047R mutant) cells; assay: Inhibition of pAKT (alphaLISA Surefire Ultra AKT 1/2/3 pS473) in T47D cells; conditions: Homo sapiens; T47D (PI3Kα H1047R mutant) cells, 24 hr compound incubation, alphaLISA pS473; read-out: T47D (H1047R) pAKT 24 hr (IC50)
Outline: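 AlphaLISA read-out of AKT pS473 in lysates after roughly 24 h compound exposure at 37° C in HBSS. Ten concentrations, 1:4 dilutions from a 10.4 μm top dose. Percent of control uses alpelisib at 3.125 μm as background and DMSO as vehicle; four-parameter curve gives IC50.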

IC50 [1]	IC50 [2]	IC50 [3]	Structure (SMILES)
34.1 nM	3620 nM	7.7 nM	Cc1cc([C@@H](C)Nc2ccc(Cl)nc2C(=O)O)c2nc(N3C[C@@H]4C[C@H]3CC4(F)F)c(C#N)nc2c1 (single isomer, unassigned) [Example 8]
65.1 nM	3400 nM	7.5 nM	Cc1cc([C@@H](C)Nc2ccc(Cl)nc2C(=O)O)c2nc(N3C[C@H]4C[C@@H]3CC4(F)F)c(C#N)nc2c1 (single isomer, unassigned) [Example 9]
99 nM	> 10000 nM	4.8 nM	Cc1cc([C@@H](C)Nc2ccc(Cl)nc2C(=O)O)c2nc(N3CC4C[C@@]4(C(F)(F)F)C3)c(C#N)nc2c1 (single isomer, unassigned) [Example 43A]
271 nM	4030 nM	16.8 nM	Cc1cc([C@@H](C)Nc2ccc(Cl)nc2C(=O)O)c2nc(N3CC4C[C@]4(C(F)(F)F)C3)c(C#N)nc2c1 (single isomer, unassigned) [Example 43B]
701 nM	> 10000 nM	52 nM	Cc1cc([C@@H](C)Nc2ccccc2C(=O)O)c2nc(NC[C@]3(C)CC3(F)F)c(C#N)nc2c1 (single isomer, unassigned) [Example 75A]
720 nM	> 10000 nM	39 nM	Cc1cc([C@@H](C)Nc2ccccc2C(=O)O)c2nc(NC[C@@]3(C)CC3(F)F)c(C#N)nc2c1 (single isomer, unassigned) [Example 75B]
84.1 nM	> 10000 nM	0.47 nM	CO[C@H](C)C1CCN(c2nc3c([C@@H](C)Nc4ccc(Cl)nc4C(=O)O)cc(C)cc3nc2C#N)CC1 (single isomer, unassigned) [Example 195A]
100 nM	> 10000 nM	0.37 nM	CO[C@@H](C)C1CCN(c2nc3c([C@@H](C)Nc4ccc(Cl)nc4C(=O)O)cc(C)cc3nc2C#N)CC1 (single isomer, unassigned) [Example 195B]
105 nM	> 10000 nM	1.8 nM	Cc1cc([C@@H](C)Nc2ccccc2C(=O)O)c2nc(N3CCN(C(=O)C[C@@H]4CC4(F)F)CC3)c(C#N)nc2c1 (single isomer, unassigned) [Example 197]
135 nM	> 10000 nM	0.69 nM	Cc1cc([C@@H](C)Nc2ccc(Cl)nc2C(=O)O)c2nc(N3C[C@H](CO)C(F)(F)C3)c(C#N)nc2c1 (single isomer, unassigned) [Example 210A]
121 nM	> 10000 nM	0.8 nM	Cc1cc([C@@H](C)Nc2ccc(Cl)nc2C(=O)O)c2nc(N3C[C@@H](CO)C(F)(F)C3)c(C#N)nc2c1 (single isomer, unassigned) [Example 210B]
78 nM	6900 nM	5.7 nM	COC[C@@H]1CN(c2nc3c([C@@H](C)Nc4ccc(Cl)nc4C(=O)O)cc(C)cc3nc2C#N)CC1(F)F (single isomer, unassigned) [Example 211A]
2.7 nM	6800 nM	2.6 nM	COC[C@H]1CN(c2nc3c([C@@H](C)Nc4ccc(Cl)nc4C(=O)O)cc(C)cc3nc2C#N)CC1(F)F (single isomer, unassigned) [Example 211B]
16.6 nM	3080 nM	0.55 nM	Cc1cc([C@@H](C)Nc2ccc(Cl)nc2C(=O)O)c2nc(N3C[C@H]4COC[C@@H]4C3)c(C#N)nc2c1 (single isomer, unassigned) [Example 229A]
18.6 nM	4920 nM	1.2 nM	Cc1cc([C@@H](C)Nc2ccc(Cl)nc2C(=O)O)c2nc(N3C[C@@H]4COC[C@H]4C3)c(C#N)nc2c1 (single isomer, unassigned) [Example 229B]
73 nM	> 10000 nM	2.8 nM	Cc1cc([C@@H](C)Nc2ccc(Cl)nc2C(=O)O)c2nc(N3CCC(F)(F)[C@@H](CO)C3)c(C#N)nc2c1 (single isomer, unassigned) [Example 234A]

IC50 [1]	IC50 [2]	IC50 [3]	Structure (SMILES)
85 nM	> 10000 nM	3.6 nM	Cc1cc([C@@H](C)Nc2ccc(Cl)nc2C(=O)O)c2nc(N3CCC(F)(F)[C@H](CO)C3)c(C#N)nc2c1 (single isomer, unassigned) [Example 234B]
39 nM	> 10000 nM	1 nM	Cc1cc([C@@H](C)Nc2ccc(Cl)nc2C(=O)O)c2nc(N3CCO[C@@H]4C[C@@H]43)c(C#N)nc2c1 (single isomer, unassigned) [Example 239A]
22 nM	7260 nM	0.4 nM	Cc1cc([C@@H](C)Nc2ccc(Cl)nc2C(=O)O)c2nc(N3CCO[C@H]4C[C@H]43)c(C#N)nc2c1 (single isomer, unassigned) [Example 239B]
62 nM	2860 nM	0.34 nM	Cc1cc([C@@H](C)Nc2ccc(Cl)nc2C(=O)O)c2nc(N3C[C@@H]4CO[C@@H](C4)C3)c(C#N)nc2c1 (single isomer, unassigned) [Example 243A]
50 nM	> 10000 nM	0.52 nM	Cc1cc([C@@H](C)Nc2ccc(Cl)nc2C(=O)O)c2nc(N3C[C@H]4CO[C@H](C4)C3)c(C#N)nc2c1 (single isomer, unassigned) [Example 243B]
57 nM	> 10000 nM	1.2 nM	Cc1cc([C@@H](C)Nc2ccc(Cl)nc2C(=O)O)c2nc(N3CC4CC[C@@]4(F)C3)c(C#N)nc2c1 (single isomer, unassigned) [Example 244A]
89 nM	> 10000 nM	1.3 nM	Cc1cc([C@@H](C)Nc2ccc(Cl)nc2C(=O)O)c2nc(N3CC4CCC4(F)C3)c(C#N)nc2c1 (single isomer, unassigned) [Example 244B]
197 nM	6850 nM	5.6 nM	Cc1cc([C@@H](C)Nc2ccc(Cl)nc2C(=O)O)c2nc(N3CC[C@@]4(CCCO4)C3)c(C#N)nc2c1 (single isomer, unassigned) [Example 253A]
113 nM	5140 nM	5.8 nM	Cc1cc([C@@H](C)Nc2ccc(Cl)nc2C(=O)O)c2nc(N3CC[C@]4(CCCO4)C3)c(C#N)nc2c1 (single isomer, unassigned) [Example 253B]
139 nM	3740 nM	4.8 nM	Cc1cc([C@@H](C)Nc2ccc(Cl)nc2C(=O)O)c2nc(N3CC4(CC[C@@H]4F)C3)c(C#N)nc2c1 (single isomer, unassigned) [Example 257A]
216 nM	> 10000 nM	–	Cc1cc([C@@H](C)Nc2ccc(Cl)nc2C(=O)O)c2nc(N3CC[S+]([O-])CC3)c(C#N)nc2c1 [Example 107, (R)-6-chloro-3-((1-(2-cyano-7-methyl-3-(1-oxidothiomorpholino)quinoxalin-5-yl)ethyl)amino)picolinic acid]
1440 nM	> 10000 nM	–	Cc1cc([C@@H](C)Nc2ccccc2-c2nnn[nH]2)c2nc(N3CCOCC3)c(C#N)nc2c1 [Example 852, (R)-5-(1-((2-(1H-tetrazol-5-yl)phenyl)amino)ethyl)-7-methyl-3-morpholinoquinoxaline-2-carbonitrile]
4340 nM	> 10000 nM	–	Cc1cc([C@@H](C)Nc2ccccc2C#N)c2nc(N3CCOCC3)c(C#N)nc2c1 [Example 853, (R)-5-(1-((2-cyanophenyl)amino)ethyl)-7-methyl-3-morpholinoquinoxaline-2-carbonitrile]
52 nM	4380 nM	–	Cc1cc([C@@H](C)Nc2ccc(Cl)nc2-c2nnn[nH]2)c2nc(N3CCOCC3)c(C#N)nc2c1 [Example 854, (R)-5-(1-((6-chloro-2-(1H-tetrazol-5-yl)pyridin-3-yl)amino)ethyl)-7-methyl-3-morpholinoquinoxaline-2-carbonitrile]
1080 nM	6900 nM	–	Cc1cc([C@@H](C)Nc2ccc(Cl)nc2C#N)c2nc(N3CCOCC3)c(C#N)nc2c1 [Example 855, (R)-5-(1-((6-chloro-2-cyanopyridin-3-yl)amino)ethyl)-7-methyl-3-morpholinoquinoxaline-2-carbonitrile]
3440 nM	3560 nM	–	CNC(=O)c1ccccc1N[C@H](C)c1cc(C)cc2nc(C#N)c(N3CCOCC3)nc12 [Example 856, (R)-2-((1-(2-cyano-7-methyl-3-morpholinoquinoxalin-5-yl)ethyl)amino)-N-methylbenzamide]
